Source: patent US12077495B2 (priority 2018, dated 2024)
Where two headings read alike, the source gives them in different places.

Assays:
[1] = target: T1, specific GHB sites (high-affinity GHB binding site) (Rattus norvegicus, UniProt P11275); assay: biochemical
T1 construct: using crude synaptic membranes prepared from rat cortex; from tissue; host or cells: rat cortex, crude synaptic membranes

[2] = target: T1, specific GHB sites (high-affinity GHB binding site); assay: biochemical; conditions: pH 6
[3] = target: T2, CAMK2A (Rattus norvegicus, UniProt P11275); assay: biochemical; format: binding; conditions: whole cell lysates of CAMK2A-transfected HEK293T cells
T2 construct: host or cells: HEK293T
T2 sequence (P11275 whole entry): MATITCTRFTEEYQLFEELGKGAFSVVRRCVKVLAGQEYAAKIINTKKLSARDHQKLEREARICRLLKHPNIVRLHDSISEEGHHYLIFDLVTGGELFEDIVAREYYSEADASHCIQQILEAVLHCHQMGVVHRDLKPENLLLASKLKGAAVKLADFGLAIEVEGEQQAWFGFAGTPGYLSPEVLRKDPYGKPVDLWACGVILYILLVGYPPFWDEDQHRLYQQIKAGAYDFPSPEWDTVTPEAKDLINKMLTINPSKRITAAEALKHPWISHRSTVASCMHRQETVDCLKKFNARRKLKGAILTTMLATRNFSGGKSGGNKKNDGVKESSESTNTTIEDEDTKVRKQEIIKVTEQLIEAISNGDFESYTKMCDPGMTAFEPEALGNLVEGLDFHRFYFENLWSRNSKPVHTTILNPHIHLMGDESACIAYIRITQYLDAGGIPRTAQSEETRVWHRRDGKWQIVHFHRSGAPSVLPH
Description: Cells were transfected with rat CAMK2A (Origene construct RR201121) or rat CAMK2B (Origene construct RR200520) using PolyFect (Qiagen, West Sussex, UK) according to the manufacturer's protocol. Whole cell homogenates were prepared 48 hr post-transfection by washing the cells with ice-cold 1×PBS and harvesting by scraping. Cells were collected and centrifuged for 10 min at 1000×g. Cell pellets were resuspended in ice-cold 1×PBS and homogenized using 2×1 mm zirkonium beads in a bullet blender for 20 s at max speed (NextAdvance, NY, USA). Homogenates were cleared by centrifugation (10 min, 4° C., 14.000×g). Protein concentration was determined using the Bradford protein assay. 150-200 μg protein was incubated with 5 nM ^3H-A and test compound in 1 ml total volume for 1 hr at 0-4° C. […] Proteins were then precipitated by addition of ice-cold acetone (4× of the assay volume), vortexing and incubation at −20° C. for 1 hr. Proteins were filtrated rapidly through GF/C unifilters (Whatman) and washed. The dried filters were added scintillation liquid and radioactivity measured on a Tricarb 2100 Scintillation counter (Packard).
A) Principle of photoaffinity labelling workflow. […] After introduction of biotin through a Staudinger-Bertozzi ligation to EZ-Link™ Phosphine-PEG3-Biotin (ThermoFisher Scientific), the biotin-labelled proteins were affinity-purified and subjected to LC-MS/MS analysis. […] C)^3H-A binding to cortical membranes from CAMK2A and CAMK2B knock-out mouse brains.
Human/rat CAMK2A expressed in HEK cells was assayed in an in-house established ^3H-A filtration binding assay performed on whole cell lysates of CAMK2A-transfected HEK293T cells.

[4] = target: T3, GABAB receptor (Rattus norvegicus, UniProt Q9Z0U4); assay: 3H-GABA binding assay for GABAB, rat cortex membranes
T3 construct: using crude synaptic membranes prepared from rat cortex; from tissue; host or cells: rat cortex, crude synaptic membranes
T3 sequence (Q9Z0U4 17-960 limits assumed): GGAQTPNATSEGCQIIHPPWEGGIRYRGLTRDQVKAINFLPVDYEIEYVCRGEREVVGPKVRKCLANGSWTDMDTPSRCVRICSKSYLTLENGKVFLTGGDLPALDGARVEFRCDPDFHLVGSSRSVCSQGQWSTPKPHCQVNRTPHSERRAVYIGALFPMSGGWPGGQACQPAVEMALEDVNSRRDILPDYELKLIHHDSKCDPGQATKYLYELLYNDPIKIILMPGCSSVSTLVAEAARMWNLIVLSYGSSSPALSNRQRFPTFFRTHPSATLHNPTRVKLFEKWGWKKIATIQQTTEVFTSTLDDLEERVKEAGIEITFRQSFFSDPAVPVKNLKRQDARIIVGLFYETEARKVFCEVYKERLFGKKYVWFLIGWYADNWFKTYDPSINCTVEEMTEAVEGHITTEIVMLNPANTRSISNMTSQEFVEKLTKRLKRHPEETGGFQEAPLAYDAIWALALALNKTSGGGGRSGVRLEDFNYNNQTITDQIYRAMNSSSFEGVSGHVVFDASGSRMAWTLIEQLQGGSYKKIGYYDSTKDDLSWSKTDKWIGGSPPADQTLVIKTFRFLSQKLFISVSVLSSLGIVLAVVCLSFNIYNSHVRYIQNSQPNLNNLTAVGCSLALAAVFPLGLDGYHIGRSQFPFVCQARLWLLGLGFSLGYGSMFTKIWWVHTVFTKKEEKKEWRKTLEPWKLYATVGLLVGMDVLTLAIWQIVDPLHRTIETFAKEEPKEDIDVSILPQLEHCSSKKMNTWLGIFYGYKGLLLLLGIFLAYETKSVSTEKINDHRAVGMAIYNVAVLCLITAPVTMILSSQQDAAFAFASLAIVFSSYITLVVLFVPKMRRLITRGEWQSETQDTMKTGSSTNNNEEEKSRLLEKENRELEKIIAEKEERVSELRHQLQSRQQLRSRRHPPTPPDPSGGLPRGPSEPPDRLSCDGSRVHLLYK
T3 sequence (O88871 41-940 partner): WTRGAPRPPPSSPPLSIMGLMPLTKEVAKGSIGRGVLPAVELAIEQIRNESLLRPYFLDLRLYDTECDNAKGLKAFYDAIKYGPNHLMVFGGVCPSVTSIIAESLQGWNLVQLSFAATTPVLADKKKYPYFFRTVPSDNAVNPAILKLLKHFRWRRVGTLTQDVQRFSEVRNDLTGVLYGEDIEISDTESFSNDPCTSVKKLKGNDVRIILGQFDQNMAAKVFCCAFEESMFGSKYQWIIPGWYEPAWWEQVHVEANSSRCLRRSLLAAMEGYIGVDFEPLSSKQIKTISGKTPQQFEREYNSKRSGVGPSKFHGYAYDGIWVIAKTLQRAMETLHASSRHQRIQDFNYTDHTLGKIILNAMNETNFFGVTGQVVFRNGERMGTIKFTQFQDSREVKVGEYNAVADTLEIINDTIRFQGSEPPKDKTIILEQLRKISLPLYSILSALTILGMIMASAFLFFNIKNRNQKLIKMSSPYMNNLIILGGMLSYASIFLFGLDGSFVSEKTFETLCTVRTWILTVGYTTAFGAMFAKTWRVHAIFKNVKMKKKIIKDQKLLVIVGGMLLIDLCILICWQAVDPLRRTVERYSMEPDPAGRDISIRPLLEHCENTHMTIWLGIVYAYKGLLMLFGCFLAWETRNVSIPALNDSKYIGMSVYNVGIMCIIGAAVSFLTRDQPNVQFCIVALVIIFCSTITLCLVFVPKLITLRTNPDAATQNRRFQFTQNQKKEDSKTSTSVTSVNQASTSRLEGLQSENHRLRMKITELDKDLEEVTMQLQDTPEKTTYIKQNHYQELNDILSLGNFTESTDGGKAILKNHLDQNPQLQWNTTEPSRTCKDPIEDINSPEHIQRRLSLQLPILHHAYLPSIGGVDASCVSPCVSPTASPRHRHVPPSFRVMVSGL
Description: Following incubation by rapid filtration through GF/C unifilters (PerkinElmer, Boston, MA, USA), using a 96-well Packard cell-harvester (PerkinElmer) and three fast washes with ice-cold binding buffer, microscint scintillation fluid (PerkinElmer) was added to the dried filters, and the amount of filter-bound radioactivity was quantified in a Packard TopCount microplate scintillation counter (PerkinElmer). […] The binding reactions were terminated by rapid filtration through GF/C filters (Whatman), soaked in 0.1% polyethylene imine, using a Brandell 48-well harvester and rapid washing with ice-cold binding buffer. […] Data are presented as % specific binding (of control), and IC50 or Ki values calculated by means of non-linear regression curve-fitting and the Cheng-Prusoff equation, respectively.

[5] = tested on: photothrombotic focal ischemia in C57BL/6J mice; assay: Photothrombotic mouse model of focal ischemia, infarct volume; format: in vivo; conditions: day 7; for infarct size: saline 5.55
Description: (§1) All procedures were performed in accordance with the guidelines on the care and use of laboratory animals set out by the University of Otago, Animal Research Committee and the Guide for Care and Use of Laboratory Animals (NIH Publication No. 85-23, 1996). All in vivo studies were approved by the University of Otago Animal Ethics Committee and are reported according to the ARRIVE (Animal Research: Reporting In Vivo Experiments) guidelines. The photochemical cortical lesion model resembles situations of acute brain injury related clinically to stroke and traumatic brain injury (TBI). Focal ischemia was induced by photothrombosis in male C57BL/6J mice (8-10 weeks) weighing ˜23-30 g as previously described (Clarkson et al., 2010). Under anesthesia with isoflurane (2% to 2.5% in O2) mice were placed in a stereotactic apparatus, the skull exposed through a midline incision, cleared of connective tissue and dried. A cold light source (KL1500 LCD, Zeiss, Auckland, New Zealand) attached to a 40× objective providing a 2-mm diameter illumination was positioned 1.5 mm lateral from bregma. Then, 0.2 ml of Rose Bengal (Sigma-Aldrich, Auckland, New Zealand; 10 mg/ml in normal saline) was administered i.p. After 5 min, the brain was illuminated through the exposed intact skull for 15 min, while keeping body temperature at 37.0±0.3° C. degrees using a heating pad (Harvard apparatus, Holliston, MA, USA). The skin was glued and animals left in a cage placed on a heating pad during the wake-up phase. Mice were housed under a 12-hr light/dark cycle with ad libitum access to food and water. Further, the mice were monitored and weighed on a daily basis.
(§2) For in vivo studies, all compounds were dissolved in a mixture of sterile saline and H2O to obtain isotonicity (0.9%) and administered as 10 mg/ml and 10 μl of solution per gram mouse body weight. The injection of compound (i.p.) was performed 30 min, 3, 6 or 12 hrs after induction of the photothrombotic stroke. The vehicle groups received a corresponding volume of saline (0.9%) at the same time points (30 min, 3, 6 or 12 hrs).
For quantification of the infarcted area, animals were perfused with saline and then with 4% paraformaldehyde (PFA) and the brain dissected out and submerged in 4% PFA for post-fixing overnight. Then the brains were moved to 30% sucrose solution and kept at 4° C. until processing. Brains were cut in 30 μm sections, free-floating in anti-freeze media. Sections were mounted, stained for cresyl violet and the infarct volumes determined by measuring every 6th section through the entire infarct as described in Lie et al (2017). All analyses were performed by an observer blinded to the treatment groups. Brains from the pMCAO studies were flash-frozen in CO2 (gas) and processed into six parallel series of sections (30 μm). Separate series were collected on glass slides and used for infarct size analysis or in Eppendorf tubes and used for qPCR. The glass slides were stored at −80° C. until further processing, and then Cresyl-Violet stained and quantified as described for the photothrombotic photochemical method.

[6] = tested on: photothrombotic focal ischemia in C57BL/6J mice; assay: Photothrombotic model, behavioural assessment (grid-walking and cylinder tasks); format: in vivo; conditions: day 7
Description: as §1, §2
Forelimb motor performance was determined using the cylinder and grid-walking tasks as previously described (Clarkson et al., 2010). All animals were tested both in a pre- and post-testing session, 1 week before and 3 days or 7 days after the ischemic insult, respectively. Observers who scored the behaviour were blinded to the treatment groups.

[7] = tested on: wild-type and GABAB receptor knock-out mice; assay: Temperature recording (hypothermia) in mice; format: in vivo; conditions: 750 mg/kg i.p., 2 hrs
Description: Mice were pre-treated with saline injections (0.9% saline) i.p. for 4 days prior to the experiment to minimize stress on the day of the experiment. Experiments were conducted in a quiet room, in which mice were left undisturbed for at least two hrs prior to the experiment. After the i.p. injections, mice were left in their home cages for two hrs, had core body temperature recorded, and were then euthanized. The core body temperature was measured rectally by a thermometer (model DM 852; ELLAB Instruments; Copenhagen, Denmark) via a lubricated thermistor probe (model PRA-22002-A, 2.2 mm diameter; ELLAB Instruments). Mice were held at the base of the tail and measured until a stable temperature measurement was obtained.
By contrast, compound A had no effect on hypothermia in either wild-type or knock-out mice.

[8] = tested on: GABAB(1) receptor knock-out mice; assay: Glucose metabolism study, 14C-2-deoxyglucose autoradiography; format: in vivo; conditions: 200 mg/kg i.p., after 45 min
[9] = FIG. 1D, read-out: Ki, competition in the 3H-A binding assay
[10] = 50 mg/kg i.p. 3 hrs after injury
[11] = read-out: Ki, inhibition of 3H-B binding

T1 sequence (P11275 whole entry): as the sequence (P11275 whole entry) above

O=C(O)Cc1ccccc1Nc1c(Cl)cc(O)cc1Cl [4′-hydroxydiclofenac, reference compound]
Ki [1, 9]: 16000 nM

O=C(O)/C=C1\CCCc2ccccc2C1O (stereo not drawn) [B, (E,RS)-6,7,8,9-tetrahydro-5-hydroxy-5H-benzocyclohept-6-ylidene acetic acid, reference compound]
Ki [2]: 440 nM | Ki [3]: 3710 nM

O=C(O)Cc1cc(O)ccc1Nc1c(Cl)cccc1Cl [C, 2-((2,6-dichlorophenyl)amino)-5-hydroxyphenylacetic acid]
inhibition of 3H-GABA binding to GABAB receptor ([4]; at a concentration of 1 mM): limited inhibition

O=C(O)/C=C1\CCCc2cc(-c3ccccc3)ccc2C1O (stereo not drawn) [Compound 2, (E)-2-(5-hydroxy-2-phenyl-5,7,8,9-tetrahydro-6H-benzo[7]annulen-6-ylidene)acetic acid]
decrease of infarct size vs saline [5, 10]: 39% | infarct size [5, 10]: 3.4 mm^3 | decrease of infarct size vs saline ([5]; 175 mg/kg i.p. 3 or 6 hrs after injury): 38-46% | infarct size ([5]; 175 mg/kg i.p. 3 hrs after injury): 3.44 mm^3 | infarct size ([5]; 175 mg/kg i.p. 6 hrs after injury): 2.98 mm^3 | motor performance in both asymmetry tests ([6]; 50 mg/kg 3 hrs after injury): significantly improved | number of foot faults (grid-walking) ([6]; 175 mg/kg, 6 hr group): significantly reduced | time spent on affected paw (cylinder task) ([6]; 175 mg/kg, both 3 and 6 hrs): significantly reduced

O=C(O)/C=C1\CCCc2cc(/C=C/c3ccccc3)ccc2C1O (stereo not drawn) [Compound 3, (E)-2-(5-hydroxy-2-((E)-styryl)-5,7,8,9-tetrahydro-6H-benzo[7]annulen-6-ylidene)acetic acid]
Ki [2]: 30 nM | Ki ([1]; pH 7.4, read-out: Ki, 3H-A binding assay): 87 nM | Ki ([1]; read-out: Ki, inhibition of 3H-A binding, pH 6): 50 nM

O=C(O)/C=C1\CCCc2cc(Cl)ccc2C1O (stereo not drawn) [Compound 4, (E)-2-(2-chloro-5-hydroxy-5,7,8,9-tetrahydro-6H-benzo[7]annulen-6-ylidene)acetic acid]
Ki [2, 11]: 52 nM

O=C(O)/C=C1\CCCc2cc(I)ccc2C1O (stereo not drawn) [Compound 5, (E)-2-(2-iodo-5-hydroxy-5,7,8,9-tetrahydro-6H-benzo[7]annulen-6-ylidene)acetic acid]
Ki [2, 11]: 53 nM

O=C(O)/C=C1\CCCc2cc(F)ccc2C1O (stereo not drawn) [Compound 6, (E)-2-(2-fluoro-5-hydroxy-5,7,8,9-tetrahydro-6H-benzo[7]annulen-6-ylidene)acetic acid]
Ki [2]: 108 nM

Cc1ccc2c(c1)CCC/C(=C\C(=O)O)C2O (stereo not drawn) [Compound 7, (E)-2-(2-methyl-5-hydroxy-5,7,8,9-tetrahydro-6H-benzo[7]annulen-6-ylidene)acetic acid]
Ki [2]: 325 nM

O=C(O)/C=C1\CCCc2c(Br)cccc2C1O (stereo not drawn) [Compound 8, (E)-2-(1-bromo-5-hydroxy-5,7,8,9-tetrahydro-6H-benzo[7]annulen-6-ylidene)acetic acid]
Ki [2]: 225 nM

O=C(O)/C=C1\CCCc2c(-c3ccccc3)cccc2C1O (stereo not drawn) [Compound 9, (E)-2-(1-phenyl-5-hydroxy-5,7,8,9-tetrahydro-6H-benzo[7]annulen-6-ylidene)acetic acid]
Ki [2, 11]: 382 nM

O=C(O)/C=C1\CCCc2ccc(Br)cc2C1O (stereo not drawn) [Compound 10, (E)-2-(3-bromo-5-hydroxy-5,7,8,9-tetrahydro-6H-benzo[7]annulen-6-ylidene)acetic acid]
Ki [2, 11]: 9690 nM

O=C1CCCO1 [GBL, γ-butyrolactone]
effect on body temperature (hypothermia) [7]: strong decreased in body temperature | cerebral metabolic rate of glucose, hippocampus ([8]; saline 9.74): 6.45 nCi/ROI/min | cerebral metabolic rate of glucose, frontal cortex ([8]; saline 10.46): 6.78 nCi/ROI/min

O=C(O)CCCO [GHB, γ-hydroxybutyric acid]
inhibition of 3H-GABA binding to GABAB receptor ([4]; at both 0.1 mM and 1 mM): could inhibit

O=C(O)Cc1ccccc1Nc1c(Cl)cccc1Cl [diclofenac, reference compound]
Ki [1, 9]: 4700 nM
